According to PubChem BioAssay (NCI):
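Exposure lasted 48 hours, with cells grown in 96-well plates and compounds tested at five concentrations. The concentration for 50% growth inhibition is given as GI50. At the TGI there is no net growth.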

Experiments:
Assay in all cases: NCI anticancer screen, dose series, 48 h
UACC-257 melanoma = test system: UACC-257 melanoma
HT29 colon = test system: HT29 colon
HCT-116 colon = test system: HCT-116 colon
KM12 colon = test system: KM12 colon
786-0 renal = test system: 786-0 renal
OVCAR-4 ovarian = test system: OVCAR-4 ovarian
K-562 leukemia = test system: K-562 leukemia
SF-539 CNS = test system: SF-539 CNS
RPMI-8226 leukemia = test system: RPMI-8226 leukemia
MDA-MB-231 breast = test system: MDA-MB-231 breast
T-47D breast = test system: T-47D breast

| SMILES | TGI (UACC-257 melanoma) [µM] | TGI (HT29 colon) [µM] | TGI (HCT-116 colon) [µM] | TGI (KM12 colon) [µM] | TGI (786-0 renal) [µM] | TGI (OVCAR-4 ovarian) [µM] | TGI (K-562 leukemia) [µM] | TGI (SF-539 CNS) [µM] | TGI (RPMI-8226 leukemia) [µM] | TGI (MDA-MB-231 breast) [µM] | TGI (T-47D breast) [µM] | GI50 (HT29 colon) [µM] | GI50 (KM12 colon) [µM] | GI50 (MDA-MB-231 breast) [µM] | GI50 (OVCAR-4 ovarian) [µM] | GI50 (SF-539 CNS) [µM] | GI50 (T-47D breast) [µM] | GI50 (UACC-257 melanoma) [µM] | GI50 (RPMI-8226 leukemia) [µM] | GI50 (HCT-116 colon) [µM] |
| --- | --- | --- | --- | --- | --- | --- | --- | --- | --- | --- | --- | --- | --- | --- | --- | --- | --- | --- | --- | --- |
| COC1=NCc2ccccc2-c2ccccc21 | > 100 | > 100 | > 100 | > 100 | > 100 | > 100 | > 100 | > 100 | – | – | – | – | – | – | – | – | – | – | – | – |
| S=C1c2ccc(Cl)cc2-n2cnnc2C2CSCN12 (stereo unspecified) | > 100 | > 100 | > 100 | > 100 | > 100 | > 100 | 27.7 | – | > 100 | > 100 | > 100 | – | – | – | – | – | – | – | – | – |
| COc1cccc(N2C(=O)CSC2c2cccc(Oc3ccccc3)c2)c1 (stereo unspecified) | 12.3 | 37.5 | 12 | > 100 | 24 | 87.5 | 11.4 | 15.9 | – | 79.1 | > 100 | – | – | – | – | – | – | – | – | – |
| Cc1ccc(C(=N)c2ccccc2Cc2cccc3ccccc23)c2ccccc12 | > 100 | > 100 | > 100 | > 100 | > 100 | > 100 | > 100 | > 100 | – | > 100 | > 100 | – | – | – | – | – | – | – | – | – |
| C1=C(c2ccccc2)SC(N2CCCCC2)S1 (stereo unspecified) | > 100 | > 100 | > 100 | > 100 | – | > 100 | > 100 | > 100 | > 100 | – | – | – | – | – | – | – | – | – | – | – |
| CN1CCC(CNc2cc(C3(C(=O)Nc4cc(C(=O)Nc5ccc(Cl)c(C(F)(F)F)c5)ccc4F)CC3)ncn2)CC1 | – | 5.09 | – | 6.91 | – | 39.5 | – | 3.19 | – | 2.99 | 26.8 | 1.73 | 2.58 | 1.42 | 13.6 | 1.61 | 4.14 | – | – | – |
| COc1cc2c(c3c1c(=O)c1ccccc1n3C)C=CC1(CCCC1)O2 | 31 | 19.7 | 28.6 | 25.3 | 25.1 | 25.8 | 21.7 | 17.3 | 5.48 | 38.2 | – | – | – | – | – | – | – | – | – | – |
| CCCCCOc1ccc(C=Nc2ccc(CCc3ccc(N=Cc4ccc(OCCCCC)cc4)cc3)cc2)cc1 | > 100 | > 100 | > 100 | > 100 | – | > 100 | > 100 | > 100 | > 100 | – | – | – | – | – | – | – | – | – | – | – |
| Cc1ccc(C)c(NC(=O)C(=O)C(C(=O)c2ccc3ccccc3c2)C2OC(=O)c3ccccc32)c1 (stereo unspecified) | 36.5 | > 100 | 24.9 | 33.2 | – | > 100 | > 100 | 17.4 | > 100 | – | – | – | – | – | – | – | – | – | – | – |
| O=C1C=CC(=O)c2c1ccc1c3ccccc3n(Cc3ccc([N+](=O)[O-])cc3)c21 | > 100 | > 100 | > 100 | > 100 | > 100 | > 100 | 48.8 | > 100 | – | > 100 | > 100 | – | – | – | – | – | – | – | – | – |
| Cc1ccc(S(=O)(=O)NC(=O)Nc2nnc(S(N)(=O)=O)s2)cc1 | – | > 100 | > 100 | > 100 | > 100 | > 100 | > 100 | > 100 | > 100 | > 100 | – | – | – | – | – | – | – | – | – | – |
| Cc1cc([NH-])c([NH-])cc1C.[Cl][Pt+2][Cl] | > 67.2 | 40 | 32.9 | > 100 | – | 31.7 | > 41.5 | > 31.6 | 60.2 | – | – | 16.6 | 24.5 | – | 16.9 | 8.5 | – | 22.4 | 9.49 | 14.2 |
| Nc1n(CC(=O)c2ccccc2)nc2sc(-c3ccccc3)n[n+]12 | > 100 | 51.3 | – | 39.3 | 48.4 | > 100 | > 100 | 25.3 | 58.8 | – | > 100 | – | – | – | – | – | – | – | – | – |
| CC(=O)NC1C(OCc2ccccc2)OC(CO)C(O)C1OCC(=O)N1CCCC1C(=O)N[C@@H](CCC(=O)NCCCCNc1c2ccccc2nc2cccc([N+](=O)[O-])c12)C(N)=O (stereo partly specified) | – | 50.2 | 64.6 | > 100 | > 100 | > 100 | > 100 | > 100 | > 100 | – | > 100 | – | – | – | – | – | – | – | – | – |
| C[C@H](c1ccccc1)N1C(=O)[C@@H](O)[C@H]1[C@H](CO)OCc1ccccc1 | > 100 | > 100 | > 100 | > 100 | > 100 | > 100 | > 100 | – | > 100 | > 100 | – | – | – | – | – | – | – | – | – | – |
| CCN(CCCOc1ccccc1)CCN(CC)CCCOc1ccccc1 | 31.5 | 27.4 | > 100 | 27.8 | 50.7 | 37.5 | 15.5 | 24.7 | 10.4 | 39.7 | – | – | – | – | – | – | – | – | – | – |
| CC(C)(C)c1ccccc1N1C(=O)c2ccc3c4c(ccc(c24)C1=O)N(c1ccccc1C(C)(C)C)C3=O | > 100 | > 100 | > 100 | > 100 | > 100 | > 100 | > 100 | > 100 | > 100 | > 100 | – | – | – | – | – | – | – | – | – | – |

| SMILES | TGI (UACC-257 melanoma) [µM] | TGI (HT29 colon) [µM] | TGI (HCT-116 colon) [µM] | TGI (KM12 colon) [µM] | TGI (786-0 renal) [µM] | TGI (OVCAR-4 ovarian) [µM] | TGI (K-562 leukemia) [µM] | TGI (SF-539 CNS) [µM] | TGI (RPMI-8226 leukemia) [µM] | TGI (MDA-MB-231 breast) [µM] | TGI (T-47D breast) [µM] | GI50 (HT29 colon) [µM] | GI50 (KM12 colon) [µM] | GI50 (MDA-MB-231 breast) [µM] | GI50 (OVCAR-4 ovarian) [µM] | GI50 (SF-539 CNS) [µM] | GI50 (T-47D breast) [µM] | GI50 (UACC-257 melanoma) [µM] | GI50 (RPMI-8226 leukemia) [µM] | GI50 (HCT-116 colon) [µM] |
| --- | --- | --- | --- | --- | --- | --- | --- | --- | --- | --- | --- | --- | --- | --- | --- | --- | --- | --- | --- | --- |
| NC(=O)Nc1c(Cl)cc(S(N)(=O)=O)cc1Cl | > 100 | > 100 | > 100 | > 100 | > 100 | > 100 | > 100 | > 100 | > 100 | > 100 | – | – | – | – | – | – | – | – | – | – |
| Cc1ccc2c(c1)-c1nc(N)c(C#N)c(-c3ccc(Cl)cc3)c1CCS2(=O)=O | > 100 | 63.2 | > 100 | > 100 | > 100 | > 100 | – | – | – | > 100 | > 100 | – | – | – | – | – | – | – | – | – |
| CCNCCNC(=O)c1ccc(I)cc1 | – | > 100 | – | > 100 | > 100 | > 100 | > 100 | > 100 | > 100 | – | – | – | – | – | – | – | – | – | – | – |
| Cc1cc(C)nc(NS(=O)(=O)c2ccc(NC(=O)c3c4ccccc4nc4ccccc34)cc2)n1 | > 100 | > 100 | > 100 | > 100 | > 100 | > 100 | > 100 | > 100 | > 100 | > 100 | – | – | – | – | – | – | – | – | – | – |
| CCC/C(Cl)=N\OC(=O)Nc1ccc(F)cc1 | 30.5 | > 69.6 | 31.1 | 42.6 | 17.5 | 30.8 | 4 | – | 15.6 | 33.1 | 21.9 | – | – | – | – | – | – | – | – | – |
| CN1CCN(C(=S)N(C)C(=O)c2ccco2)CC1 | > 100 | > 100 | – | > 100 | > 100 | > 100 | > 100 | – | > 100 | > 100 | > 100 | – | – | – | – | – | – | – | – | – |
| COc1ccc(N2C(=O)C3c4[nH]c5ccc(OCc6ccccc6)cc5c4C4CCC(c5ccccc5)CC4C3C2=O)cc1 (stereo unspecified) | > 100 | > 100 | > 100 | > 85.7 | 7.51 | 3.04 | 12 | 7.17 | – | 27.3 | 77.3 | – | – | – | – | – | – | – | – | – |
| O=C(O)CC(Cc1ccccc1Cl)C(=O)O (stereo unspecified) | > 100 | > 100 | > 100 | > 100 | > 100 | > 100 | > 100 | – | > 100 | > 100 | > 100 | – | – | – | – | – | – | – | – | – |
| COc1cc2c(c(O)c1O)C(=O)C1CCC(=O)N1C2c1cccc2ccccc12 (stereo unspecified) | > 50 | > 50 | > 50 | > 50 | > 50 | > 50 | > 50 | > 50 | > 50 | – | > 50 | – | – | – | – | – | – | – | – | – |
| C[C@@H]1OC(=O)C[C@H]2CC(=O)N(CCC3CN(C(=O)OCc4ccccc4)c4ccccc43)C[C@@H]21 (stereo partly specified) | > 100 | > 100 | > 100 | > 100 | > 100 | > 100 | > 100 | – | > 100 | > 100 | > 100 | – | – | – | – | – | – | – | – | – |
| c1ccc(-c2csc3c4ccccc4c4ccccc4[n+]23)cc1 | 3.27 | 20.6 | 12.1 | 3.36 | 21 | 18.3 | > 30.7 | 14.8 | > 100 | – | – | – | – | – | – | – | – | – | – | – |
| N=C1C(=N)c2ccccc2-c2ccccc21.[Cl-].[Ru+2].c1ccc(-c2ccccn2)nc1.c1ccc(-c2ccccn2)nc1 | > 100 | > 100 | > 100 | > 100 | > 100 | > 100 | > 100 | > 100 | – | – | – | – | – | – | – | – | – | – | – | – |
| C[C@@]1(O)C2CC3CC1(c1ccccc1)CC(/C3=N/O)/C2=N\O (stereo partly specified) | > 100 | > 100 | > 100 | > 100 | > 100 | > 100 | > 100 | > 100 | – | > 100 | > 100 | – | – | – | – | – | – | – | – | – |
| CNC(C)(C)Cc1ccc(Cl)cc1 | > 100 | > 100 | > 100 | > 100 | > 100 | > 100 | > 100 | > 100 | > 100 | – | – | – | – | – | – | – | – | – | – | – |
| NC(=O)CNC(=O)[C@@H]1CC(OCCC(=O)O)CN1C(=O)C1CCCN1C(=O)OCc1ccccc1 (stereo partly specified) | > 100 | > 100 | > 100 | > 100 | > 100 | > 100 | > 100 | – | > 100 | > 100 | > 100 | – | – | – | – | – | – | – | – | – |
| CCn1nc(C)c2c1C(=O)NCC(=O)N2 | > 100 | > 100 | > 100 | > 100 | – | > 100 | – | > 100 | – | – | – | – | – | – | – | – | – | – | – | – |
